Laboratory results from patent US11123683B2, “Carbon dioxide absorbent and apparatus of separating and recovering carbon dioxide” (Kabushiki Kaisha Toshiba, priority 2017, dated 2021).

Assay: pKa of amino group of the heterocyclic ring
Type: physicochemical
Conditions: amino group in heterocyclic ring

Row | pKa | SMILES
1 | 9.1 | CC(=O)CN1CCNCC1 [1-(1-piperazinyl)-2-propanone]
2 | 6.6 | CN1CC(CO)NCC1=O (stereo not drawn) [5-hydroxymethyl-1-methyl-2-piperazinone]
3 | 4.3 | O=C1CNCC(=O)N1 [2,6-piperazinedione]
